Data on one compound can be found in patent US8124111B2, “Immunomodulation by altering sphingosine 1-phosphate lyase (SPL) activity” (Children's Hospital & Research Center at Oakland, priority 2005, dated 2012).

One data set addresses T1, SPL (Homo sapiens, UniProt O95470).
T1 sequence (O95470 1-568): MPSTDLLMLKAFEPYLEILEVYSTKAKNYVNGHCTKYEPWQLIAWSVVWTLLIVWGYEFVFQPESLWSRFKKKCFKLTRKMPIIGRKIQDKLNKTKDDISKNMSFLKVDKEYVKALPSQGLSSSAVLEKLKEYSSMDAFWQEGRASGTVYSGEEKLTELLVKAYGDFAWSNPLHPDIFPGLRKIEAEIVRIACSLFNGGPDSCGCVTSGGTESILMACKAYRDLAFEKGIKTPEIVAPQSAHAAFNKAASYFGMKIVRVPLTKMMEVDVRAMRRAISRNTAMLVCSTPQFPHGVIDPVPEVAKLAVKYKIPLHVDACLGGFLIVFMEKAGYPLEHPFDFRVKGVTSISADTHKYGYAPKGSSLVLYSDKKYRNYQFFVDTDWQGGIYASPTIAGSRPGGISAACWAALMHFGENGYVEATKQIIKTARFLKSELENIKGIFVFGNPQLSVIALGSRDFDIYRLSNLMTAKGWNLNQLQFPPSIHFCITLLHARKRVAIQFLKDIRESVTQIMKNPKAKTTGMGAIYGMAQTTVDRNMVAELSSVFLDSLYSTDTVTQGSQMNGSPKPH
Put plainly: Inhibition of SPL activity in vitro (whole cell extracts of HEK293 cells with human SPL adenoviral construct). The format is biochemical. On the set-up: expressed in transfected cells; host or cells: HEK293 infected with adenoviral vector. Here is the method: Various concentrations of FTY720 or its phosphorylated derivative (FTY720P) were incubated for 30 minutes on ice with whole cell extracts containing high SPL activity by virtue of a human SPL adenoviral expression construct. SPL activity was determined. (A) FTY720; (B) FTY720-P.
SPL enzyme assay: Tissues were homogenized by sonication in 9 volumes of ice-cold homogenization buffer (5 mM MOPS pH 7.5, 1 mM DTT, 1 mM EDTA, 0.25 M sucrose, and 5 micrograms/ml each chymostatin, leupeptin, pepstatin A and antipain). SPL assays were conducted using 50 micrograms protein per assay and radioactive [4,5 ^3H]DHS1P substrate, as described previously (Reiss et al., (2004) J Biol Chem 279, 1281-1290). For in vitro FTY720 and FTY720-P experiments, drug was incubated with whole cell extracts prepared from HEK293 cells infected with an adenoviral vector expressing human SPL. These extracts contained approximately 200 picomoles/mg protein/minute SPL activity. Drug was incubated with extracts for 30 minutes, followed by addition of extracts to reaction buffer and substrate to initiate the reaction.
Although treatment with FTY720 was associated with low (nanomolar) circulating drug levels, it was possible that local concentrations within cells and subcellular compartments may have been considerably higher, since FTY720 has been reported to be actively transported into cells by the actions of drug transporters that recognize long chain bases (Honig et al., (2003) J Clin Invest 111, 627-637).

Another data set has as its system SPL protein expression. Kind of data set: SPL protein expression in thymic extracts by immunoblotting. The format is in vivo. The settings on record: mice treated for 24 hours. How it is done: (A) SPL gene expression. HEK293 cells were co-transfected with a human SPL luciferase reporter construct and the sea pansy luciferase reporter as a control for transfection efficiency. Twenty-four hours after transfection, cells were treated with 0.3 μM FTY720, 3.0 μM FTY720 or vehicle and incubated for another 24 hours at 37° C. Luciferase activity was then determined as a measure of expression, as described in Experimental Methods. Values shown are luciferase activity normalized to sea pansy luciferase; (B) SPL protein expression. Thymic extracts from control mice (time 0) and mice treated with FTY720 for 24 hours were evaluated for SPL protein expression by immunoblotting. Actin was used as a loading control.
SPL expression: To evaluate the effect of FTY720 and FTY720-P on SPL gene expression, HEK293 cells were treated for 30 minutes with 3 μM of either drug, followed by transfection with pSPL-BamHI, a human SPL-luciferase reporter construct. After 48 hours, reporter expression was determined by luciferase activity as described (Oskouian et al., (2005) J Biol Chem 280, 18403-18410)). Western blotting of mouse tissue extracts was performed using a 1:2000 dilution of polyclonal sera raised against the murine SPL C-terminal peptide: (NH2)—V-T-Q-G-N-Q-M-N-G-S—P—K—P—R—(COOH). [SEQ ID NO:11] […]

The test system of another data set is Lymphocytes. Kind of data set: Lymphocyte counts after FTY720 treatment. The format is in vivo, mice. How it is done:
Drug treatments and leukocyte/lymphocyte counts: Four-week old FVB or C3H mice were obtained from Charles River Laboratories (Wilmington, Mass.). Animals were maintained in a pathogen-free facility in microisolator cages. Mice were anaesthetized with isoflurane inhalation, and a single dose of FTY720 (at 1 or 3 mg/kg) or GT11 (at 1, 10 or 100 mg/kg) in sterile water was injected intraperitoneally at time zero. Blood counts were determined by Coulter counter (Coulter Instruments, Hialeah, Fla.) and by manual differential counting. Mice were euthanized by CO2 inhalation at various time points post-injection, followed by tissue harvest. All animal studies were performed in accordance with approved CHORI IACUC protocols.
Inhibition of SPL by FTY720 in vivo—The effect on SPL enzyme activity of FTY720 administration was tested. Four-week old female FVB mice were given 1 mg/kg FTY720 by intraperitoneal injection, and tissue SPL activity in thymus was assessed over time. […] SPL inhibition occurred concomitantly with lymphopenia, and was consistent with the timing of lymphopenia reported previously (Chiba et al., (1998) J Immunol 160, 5037-5044) (Table 1).

For data set [1] the following is noted: single dose administration; cited from earlier work.
The mark [2] stands for this setting: 30 minutes incubation with extracts.

Take `CCCCCCCCc1ccc(CCC(N)(CO)CO)cc1` [FTY720]: the “dose dependence of SPL inhibition in vitro” value at SPL was “dose-dependent”. Further, at SPL (setting [2]), the “concentration of maximal effect on SPL activity in vitro” value worked out at 30 µM. The “lowest concentration with effect on SPL activity in vitro” value at SPL (setting [2]) stood at 300 nM. In addition, in the data set on SPL protein expression, the “SPL protein expression (immunoblotting)” value is reported as “not affected”. Moreover, the Lymphocytes in the data set with Lymphocytes (24 hours after FTY720) was 2.2 1000/μL; in the data set with Lymphocytes (48 hours after FTY720), 3.2 1000/μL; in the data set with Lymphocytes (72 hours after FTY720), 2.0 1000/μL. The elimination half-life entry in data set [1] is “long”.
